According to patent publication US4803224A, “Antiviral antibiotic complex” (Bristol-Myers Company, priority 1986, dated 1989):
Entries after “also recorded” stand apart in the source; their conditions may differ. Where two headings read alike, the source gives them in different places.

Columns and labels:
Assay type in all cases: cell-based
[1] = system: Bacillus subtilis PCI-219; assay: Paper disc-agar diffusion method; conditions: "are believed to be"
From the text: (§1) The production of BU-2231 in the fermentation medium may be followed readily during the course of fermentation by the paper disc-agar diffusion method using Bacillus subtilis PCI-219 and Mycobacterium smegmatis strain M6-3 as test organisms. The BU-2231 A and BU-2231 B components of BU-2231 antibiotic complex as well as the co-produced aminoglycoside complex (also referred to as the "nebramycin factors" or "nebramycin components") are believed to be active against B. subtilis but only the BU-2231 A and B comppnents show activity against Mycobacterium smegmatis strain M6-3.

[2] = system: Mycobacterium smegmatis strain M6-3; assay: Paper disc-agar diffusion method
From the text: as §1

[3] = system: Haemophilus influenza A2241; assay: 2-fold serial broth dilution, nutrient broth
[4] = system: Staphylococcus aureus Smith; assay: 2-fold serial broth dilution, nutrient broth
[5] = system: Klebsiella pneumoniae A9977; assay: 2-fold serial broth dilution, nutrient broth
[6] = system: herpes simplex virus type I (HSV-1); assay: Plaque reduction assay, HSV-1-Vero cell system; conditions: for Antiviral activity (in words): HSV-1, relative to the compounds tested; for Plaque reduction assay, Activity vs HSV-1 (ID50): Vero cell
[7] = system: Serratia marcescens A20019; assay: 2-fold serial broth dilution, nutrient broth
[8] = system: Streptococcus faecalis A9612; assay: 2-fold serial broth dilution, nutrient broth
[9] = system: herpes simplex virus type I (HSV-1); assay: Dye-uptake assay, HSV-1-Vero cell system; conditions: for Dye-uptake assay, Activity vs HSV-1 (ID50): Vero cell
Description: (§2) The results are shown in Table 2 together with their cytotoxicity against the host cells.
In order to examine the relationship between peptide chain length and antiviral activity, a partial acid hydrolysis of BU-2231 V was carried out by heating with 6N HCl at 100 deg. C. for one hour. The hydrolyzate was chromatographed on CM-cellulose to yield 8 peptide fragments. Number of D-α,γ-diaminobutyric acid residues in each peptide was determined by the DNP method and antiviral activity against HSV-1 assessed by the dye-uptake assay (Table 4).

[10] = system: Gram-positive and Gram-negative bacteria; assay: In vitro antibacterial activity, 2-fold serial broth dilution, overall
[11] = system: Pseudomonas aeruginosa A9930; assay: 2-fold serial broth dilution, nutrient broth
[12] = system: Staphylococcus aureus BX-1633-2; assay: 2-fold serial broth dilution, nutrient broth
Escherichia coli Juhl = assay: 2-fold serial broth dilution, nutrient broth
[13] = system: Enterobacter cloacae A9656; assay: 2-fold serial broth dilution, nutrient broth
Proteus mirabilis A9554 = assay: 2-fold serial broth dilution, nutrient broth
Vero cell [14] = assay: Cytotoxicity against host cells (plaque reduction assay)
From the text: as §2

Vero cell [15] = assay: Cytotoxicity against host cells (dye-uptake assay)
From the text: as §2

Compound	Activity against B. subtilis (in words) [1]	Activity against Mycobacterium smegmatis strain M6-3 (in words) [2]	MIC by TDT [3] [µg/mL]	MIC by TDT [4] [µg/mL]	MIC by TDT [5] [µg/mL]	Plaque reduction assay, Activity vs HSV-1 (ID50) [6] [µg/mL]	MIC by TDT [7] [µg/mL]	MIC by TDT [8] [µg/mL]	Dye-uptake assay, Activity vs HSV-1 (ID50) [9] [µg/mL]	Antibacterial activity (in words) [10]	MIC by TDT [11] [µg/mL]	MIC by TDT [12] [µg/mL]	MIC by TDT (Escherichia coli Juhl) [µg/mL]	MIC by TDT [13] [µg/mL]	MIC by TDT (Proteus mirabilis A9554) [µg/mL]	other results
Cc1c(N)nc([C@H](CC(N)=O)NC[C@H](N)C(N)=O)nc1C(=O)N[C@H](C(=O)N[C@H](C)[C@@H](O)CC(=O)N[C@H](C(=O)NC(O[C@@H]1O[C@@H](C)[C@@H](N)[C@@H](O)[C@H]1O)C(O)c1nc(-c2nc(C(=O)NCCCC(N)CC(=O)NCCCNCCCCN)cs2)cs1)[C@@H](C)O)[C@H](O[C@@H]1O[C@@H](CO)[C@@H](O)[C@H](O)[C@@H]1O[C@H]1O[C@H](CO)[C@@H](O)[C@H](OC(N)=O)[C@@H]1O)c1c[nH]cn1 (stereo partly shown) [BU-2231 A]	active	show activity	–	–	–	–	–	–	–	–	–	–	–	–	–	–
α-poly-L-lysine [α-Poly-L-lysine (MW: 3,500)]	–	–	100	12.5	12.5	42	> 100	> 100	100	moderate inhibitory activity	> 100	25	12.5	> 100	50	Antiviral activity (in words) ([6]; listed as lower molecular α-poly-L-lysine): least active; Antibacterial activity (in words) ([10]; listed as α-poly-L-lysines): little weaker than others
Cc1c(N)nc([C@H](CC(N)=O)NC[C@@H](N)C(N)=O)nc1C(=O)N[C@H](C(=O)N[C@H](C)[C@@H](O)CC(=O)N[C@@H](C(=O)NC(O[C@@H]1O[C@@H](C)[C@@H](N)[C@@H](O)[C@H]1O)C(O)c1nc(-c2nc(C(=O)NCCCNCCCCN)cs2)cs1)[C@@H](C)O)C(O[C@@H]1O[C@@H](CO)[C@H](O)[C@@H](O)[C@@H]1O[C@H]1O[C@H](CO)[C@@H](O)[C@@H](OC(N)=O)[C@@H]1O)c1cnc[nH]1 (stereo partly shown) [BU-2231 B]	active	show activity	–	–	–	–	–	–	–	–	–	–	–	–	–	–
α-poly-L-lysine [α-Poly-L-lysine (MW: 25,000)]	–	–	–	–	–	1.8	–	–	> 20	–	–	–	–	–	–	Antiviral activity (in words) ([6]; listed as higher molecular α-poly-L-lysine): slightly less active than BU-2231 V
ε-poly-L-lysine	–	–	12.5	6.3	6.3	2.6	25	50	2.7	moderate inhibitory activity; also recorded: comparable	12.5	6.3	6.3	25	6.3	Antiviral activity (in words) [6]: slightly less active than BU-2231 V; Antiviral activity (in words) ([9]; HSV-1): comparably active; Plaque reduction assay, Cytotoxicity vs Vero cell (TCID50) (Vero cell [14]): 70 µg/mL; Dye-uptake assay, Cytotoxicity vs Vero cell (TCID50) (Vero cell [15]): > 100 µg/mL
NCC[C@@H](N)C(=O)O [D-α,γ-DAB, D-α,γ-diaminobutyric acid]	–	–	–	–	–	–	–	–	–	–	–	–	–	–	–	IC50 ([9]; Human alphaherpesvirus 1, Vero, partial hydrolyzates of BU-2231V, read-out: Anti-HSV-1 activity ID50): > 660 µg/mL
